Laboratory results: the supplement of paper PMC10307832

Key:
Assay in all cases: relative viability (nuclei count vs DMSO), 5 days (fraction); higher = more cells survive
[1] = compound: CC1=C(C(=NN1)C)CC2=C(C3=C(S2)N(C(=O)N(C3=O)C)CC(C)C)C(=O)N4C[C@@H](CO4)O + Cc1nc(NC(=O)N2CCC[C@H]2C(N)=O)sc1-c1ccnc(C(C)(C)C(F)(F)F)c1 [Alpelisib] (partner 2 µM)
Summary of the method: (§1)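 Relative viability equals treated-well nuclei counts divided by vehicle-well nuclei counts. Counts came from 4× images of lung cancer cell lines grown in 1536-well plates for 5 days after pin-tool dosing on the day after seeding. Dosing used one drug alone or a fixed anchor-drug dose plus five library-drug doses (not always all listed) in √10 steps, and values are medians of duplicate plates.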

[2] = compound: CC1=C(C(=NN1)C)CC2=C(C3=C(S2)N(C(=O)N(C3=O)C)CC(C)C)C(=O)N4C[C@@H](CO4)O + Cc1nc(Nc2ncc(C(=O)Nc3c(C)cccc3Cl)s2)cc(N2CCN(CCO)CC2)n1 [Dasatinib] (partner 0.075 µM)
Summary of the method: as §1

IDH-C35 + Foretinib = compound: Cc1ccccc1C(C(=O)NC1CCCCC1)N(C(=O)Cn1ccnc1C)c1cccc(F)c1 [IDH-C35] + COc1cc2c(Oc3ccc(NC(=O)C4(C(=O)Nc5ccc(F)cc5)CC4)cc3F)ccnc2cc1OCCCN1CCOCC1 [Foretinib] (partner 0.25 µM)
Summary of the method: as §1

IDH-C35 + Phenformin = compound: Cc1ccccc1C(C(=O)NC1CCCCC1)N(C(=O)Cn1ccnc1C)c1cccc(F)c1 [IDH-C35] + N=C(N)NC(=N)NCCc1ccccc1 [Phenformin] (partner 250 µM)
Summary of the method: as §1

Cell Line | relative viability ([1]; first compound 0.0025 µM) | relative viability ([1]; first compound 0.007906 µM) | relative viability ([1]; first compound 0.025 µM) | relative viability ([1]; first compound 0.07906 µM) | relative viability ([1]; first compound 0.25 µM) | relative viability ([2]; first compound 0.0025 µM) | relative viability ([2]; first compound 0.007906 µM) | relative viability ([2]; first compound 0.025 µM) | relative viability ([2]; first compound 0.07906 µM) | relative viability ([2]; first compound 0.25 µM) | relative viability (IDH-C35 + Foretinib; first compound 0.08 µM) | relative viability (IDH-C35 + Foretinib; first compound 0.253 µM) | relative viability (IDH-C35 + Foretinib; first compound 0.8 µM) | relative viability (IDH-C35 + Foretinib; first compound 2.53 µM) | relative viability (IDH-C35 + Foretinib; first compound 8 µM) | relative viability (IDH-C35 + Phenformin; first compound 0.08 µM) | relative viability (IDH-C35 + Phenformin; first compound 0.253 µM) | relative viability (IDH-C35 + Phenformin; first compound 0.8 µM) | relative viability (IDH-C35 + Phenformin; first compound 2.53 µM) | relative viability (IDH-C35 + Phenformin; first compound 8 µM)
NCI-H1563 | 1 | 0.847 | 0.954 | 0.959 | 0.893 | 0.503 | 0.439 | 0.418 | 0.404 | 0.491 | 1.01 | 1.01 | 0.872 | 0.907 | 0.774 | 0.703 | 0.625 | 0.696 | 0.623 | 0.649
NCI-H1651 | 1.07 | 1.02 | 0.923 | 0.961 | 0.945 | 0.445 | 0.372 | 0.352 | 0.348 | 0.345 | 0.858 | 0.809 | 0.732 | 0.822 | 0.79 | 0.338 | 0.292 | 0.362 | 0.344 | 0.296
NCI-H1666 | 1.06 | 1.01 | 1.02 | 1.13 | 0.953 | 0.796 | 0.88 | 0.776 | 0.798 | 0.923 | 1.05 | 0.92 | 0.982 | 1.01 | 0.848 | 0.573 | 0.578 | 0.594 | 0.538 | 0.54
NCI-H1734 | 0.692 | 0.771 | 0.667 | 0.757 | 0.677 | 0.504 | 0.543 | 0.453 | 0.484 | 0.473 | 0.799 | 0.913 | 0.936 | 0.796 | 0.774 | 0.402 | 0.449 | 0.4 | 0.359 | 0.346
NCI-H1755 | 0.963 | 1.03 | 0.898 | 0.849 | 1.02 | 0.497 | 0.343 | 0.456 | 0.359 | 0.417 | 0.951 | 0.921 | 0.874 | 0.95 | 0.933 | 0.605 | 0.614 | 0.65 | 0.639 | 0.649
NCI-H1793 | 0.724 | 0.826 | 0.546 | 0.554 | 0.742 | 0.428 | 0.375 | 0.39 | 0.362 | 0.377 | 0.753 | 0.81 | 0.724 | – | 0.624 | 0.399 | 0.418 | 0.399 | – | 0.337
NCI-H1915 | 1.09 | 1.11 | 1.1 | 1.15 | 1.07 | 0.284 | 0.374 | 0.338 | 0.3 | 0.291 | 1.07 | 1.13 | 1.07 | 1.05 | 1.07 | 0.364 | 0.37 | 0.382 | 0.369 | 0.341
NCI-H1944 | 0.858 | 0.858 | 0.921 | 0.847 | 0.761 | 0.238 | 0.253 | 0.235 | 0.234 | 0.221 | 0.91 | 0.934 | 0.888 | 0.827 | 0.798 | 0.212 | 0.183 | 0.202 | 0.18 | 0.192
NCI-H1975 | 0.668 | 0.538 | 0.723 | 0.719 | 0.745 | 0.41 | 0.36 | 0.394 | 0.343 | 0.39 | 0.938 | 0.951 | 1.01 | 0.974 | 0.862 | 0.411 | 0.406 | 0.401 | 0.425 | 0.401
NCI-H1993 | 0.69 | 0.608 | 0.719 | 0.615 | 0.722 | 0.614 | 0.497 | 0.572 | 0.596 | 0.517 | 0.797 | 0.688 | 0.811 | 0.787 | 0.759 | 0.56 | 0.508 | 0.476 | 0.555 | 0.524
NCI-H2009 | 1.31 | 1.23 | 1.14 | 1.26 | 1.15 | 0.354 | 0.301 | 0.253 | 0.247 | 0.267 | 1.17 | 1.28 | 1.24 | 1.13 | 1.18 | 0.56 | 0.498 | 0.521 | 0.451 | 0.481
NCI-H2023 | 0.621 | 0.635 | 0.593 | 0.58 | 0.622 | 0.671 | 0.789 | 0.601 | 0.55 | 0.625 | 0.918 | 1 | 1.09 | 0.76 | 0.839 | 0.405 | 0.376 | 0.404 | 0.41 | 0.351
NCI-H2085 | 0.989 | 0.975 | 0.831 | 0.855 | 0.873 | 0.254 | 0.264 | 0.26 | 0.209 | 0.242 | 0.895 | 0.907 | 0.902 | 1 | 0.897 | 0.748 | 0.737 | 0.714 | 0.767 | 0.595
NCI-H2087 | 0.952 | 1.03 | 1.12 | 1.31 | 1.18 | 0.715 | 0.924 | 0.844 | 0.769 | 0.905 | 0.953 | 0.924 | 1.15 | – | 1.17 | 0.482 | 0.433 | 0.398 | – | 0.432
NCI-H2126 | 0.773 | 0.847 | 0.732 | 0.736 | 0.682 | 0.695 | 0.591 | 0.659 | 0.53 | 0.585 | 1.14 | 1.22 | 1.15 | 1.14 | 1.06 | 0.529 | 0.548 | 0.525 | 0.525 | 0.483
NCI-H2170 | 0.918 | 0.868 | 0.705 | 0.819 | 0.786 | 0.56 | 0.592 | 0.589 | 0.412 | 0.552 | 0.98 | 0.97 | 1.1 | 0.937 | 0.951 | 0.393 | 0.415 | 0.403 | 0.425 | 0.412
